The results in this text go back to ChEMBL document CHEMBL1649350, “Receptor-dependent (RD) 3D-QSAR approach of a series of benzylpiperidine inhibitors of human acetylcholinesterase (HuAChE)” (Eur J Med Chem, 2011).

Molecules are shown by their SMILES.

The target of the assay is Acetylcholinesterase (Homo sapiens, UniProt P22303).
Acetylcholinesterase, sequence (P22303 whole entry): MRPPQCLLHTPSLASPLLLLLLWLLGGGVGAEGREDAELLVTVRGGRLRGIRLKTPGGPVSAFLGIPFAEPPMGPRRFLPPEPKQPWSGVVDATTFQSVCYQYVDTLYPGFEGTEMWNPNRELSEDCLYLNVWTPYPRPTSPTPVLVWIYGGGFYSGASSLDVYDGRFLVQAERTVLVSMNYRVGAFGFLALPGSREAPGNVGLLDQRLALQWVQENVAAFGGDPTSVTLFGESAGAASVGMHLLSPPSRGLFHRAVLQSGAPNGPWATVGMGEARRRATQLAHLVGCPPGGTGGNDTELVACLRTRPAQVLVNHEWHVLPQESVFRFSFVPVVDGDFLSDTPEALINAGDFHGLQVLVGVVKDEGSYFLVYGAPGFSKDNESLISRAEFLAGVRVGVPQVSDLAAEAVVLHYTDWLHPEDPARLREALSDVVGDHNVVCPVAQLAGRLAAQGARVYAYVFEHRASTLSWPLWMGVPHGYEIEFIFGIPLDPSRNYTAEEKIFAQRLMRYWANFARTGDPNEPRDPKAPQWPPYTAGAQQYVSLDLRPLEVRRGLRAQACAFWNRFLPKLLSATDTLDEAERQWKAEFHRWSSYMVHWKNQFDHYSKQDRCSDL

Description: Inhibition of human acetylcholinesterase

`O=C(CCC1CCN(Cc2ccccc2)CC1)c1ccc2c(c1)CCN2` showed a concentration for half-maximal inhibition (IC50) of 52.5 nM. This counts as double-digit nanomolar.
Turning to `COc1cccc(CN2CCC(CCC(=O)c3cc4c5c(ccn5C(=O)CC4)c3)CC2)c1`, the IC50 is 126 nM.
The value for `O=C(CCC1CCN(Cc2ccccc2)CC1)c1ccc2c(c1)CCCN2` was 64.6 nM; that for `O=C(CCC1CCN(Cc2cccc([N+](=O)[O-])c2)CC1)c1cc2c3c(ccn3C(=O)CC2)c1` was 2.88 nM.
`O=C(CCC1CCN(Cc2ccccc2)CC1)c1cc2c3c(c1)CCN3C(=O)CC2` had an IC50 of 9.77 nM. This IC50 is about 3.4-fold higher than that of the molecule before.
In turn, `O=C(CCC1CCN(Cc2cccc(Cl)c2)CC1)c1cc2c3c(ccn3C(=O)CC2)c1` gave an IC50 of 4.9 nM.
As to `O=C(CCC1CCN(Cc2ccc(F)cc2)CC1)c1cc2c3c(ccn3C(=O)CC2)c1`, the IC50 was 4.57 nM.
For `O=C(CCC1CCN(Cc2ccc(O)cc2)CC1)c1cc2c3c(ccn3C(=O)CC2)c1` the value was 0.49 nM; for `CS(=O)(=O)Nc1ccc2c(CCC3CCN(Cc4ccccc4)CC3)noc2c1`, 14.1 nM; for `COc1ccccc1CN1CCC(CCC(=O)c2cc3c4c(ccn4C(=O)CC3)c2)CC1`, 64.6 nM.
Molecule `O=C(CCC1CCN(Cc2ccccc2)CC1)c1ccc2c(c1)NC(c1ccccc1)N2` (stereo not drawn) gave an IC50 of 33.1 nM.
Turning to `c1ccc(CN2CCC(CCc3noc4cc(C5CCCCC5)ccc34)CC2)cc1`, the IC50 is 0.794 nM.
The value for `O=C(CCC1CCN(Cc2ccccc2O)CC1)c1cc2c3c(ccn3C(=O)CC2)c1` was 1.1 nM; that for `O=C(CCC1CCN(Cc2ccccc2)CC1)c1ccc2c(c1)CNCCO2` was 39.8 nM; that for `O=C(CCC1CCN(Cc2ccccc2Cl)CC1)c1cc2c3c(ccn3C(=O)CC2)c1` was 5.13 nM.
The molecule `O=C(CCC1CCN(Cc2ccc(Cl)cc2)CC1)c1cc2c3c(ccn3C(=O)CC2)c1` had an IC50 of 151 nM.
In turn, `O=C(CCC1CCN(Cc2cccc(F)c2)CC1)c1cc2c3c(ccn3C(=O)CC2)c1` gave an IC50 of 1.29 nM.
`O=C(CCC1CCN(Cc2ccccc2)CC1)c1ccc2c(c1)CCNCC2` gave an IC50 of 25.1 nM.
`O=C(CCC1CCN(Cc2ccccc2F)CC1)c1cc2c3c(ccn3C(=O)CC2)c1` showed an IC50 of 2.51 nM.
As for `O=C(CCC1CCN(Cc2ccccc2)CC1)c1ccc2c(c1)CNCCC2`, the IC50 is 22.9 nM.
For the molecule `O=C(CCC1CCN(Cc2cccc(O)c2)CC1)c1cc2c3c(ccn3C(=O)CC2)c1`, it took 8.71 nM to reach half-maximal inhibition (IC50).
For `O=C(CCC1CCN(Cc2ccccc2)CC1)c1ccc2c(c1)NCCC2` the value was 166 nM.
For `O=C(CCC1CCN(Cc2ccccc2)CC1)c1cc2c3c(c1)CC(=O)N3CCC2` the value was 3.63 nM; for `COc1ccc(CN2CCC(CCC(=O)c3cc4c5c(ccn5C(=O)CC4)c3)CC2)cc1`, 347 nM; for `O=C(CCC1CCN(Cc2ccccc2)CC1)c1cc2c3c(c1)CCC(=O)N3CCC2`, 15.8 nM.
`O=C(CCC1CCN(Cc2ccccc2)CC1)c1cc2c3c(c1)CCN3C(=O)CCC2` had an IC50 of 52.5 nM.
For `O=C(CCC1CCN(Cc2ccc([N+](=O)[O-])cc2)CC1)c1cc2c3c(ccn3C(=O)CC2)c1` the value was 42.7 nM; for `O=C(CCC1CCN(Cc2ccccc2[N+](=O)[O-])CC1)c1cc2c3c(ccn3C(=O)CC2)c1`, 89.1 nM.

What is called IC50 is the concentration needed to halve the response being measured.
